Data from publication PMC8147781, “Discovery of Pyrrolidine-2,3-diones as Novel Inhibitors of P. aeruginosa PBP3” (Antibiotics, 2021).
Converted amounts (≈) assume the structure as drawn.

Key:
[1] = molecular target: T1, PBP3 of P. aeruginosa (PaPBP3) (Pseudomonas aeruginosa, UniProt G3XD46); experiment: S2dfluo fluorescence transpeptidase assay; type: biochemical; conditions: for IC50: 300 nM PaPBP3, 30 min preincubation, 37 °C, read-out: IC50 Determination with PaPBP3, S2dfluo Assay; for inhibition at 100 µM: read-out: PBP3 Inhibition at 100 µM (%)
T1 construct: P. aeruginosa PBP3 (amino acids 40 to 563); His-tag; made in house; host or cells: E. coli BL21 (DE3) Rosetta, plasmid pET41_PBP-3
T1 sequence (G3XD46 40-563): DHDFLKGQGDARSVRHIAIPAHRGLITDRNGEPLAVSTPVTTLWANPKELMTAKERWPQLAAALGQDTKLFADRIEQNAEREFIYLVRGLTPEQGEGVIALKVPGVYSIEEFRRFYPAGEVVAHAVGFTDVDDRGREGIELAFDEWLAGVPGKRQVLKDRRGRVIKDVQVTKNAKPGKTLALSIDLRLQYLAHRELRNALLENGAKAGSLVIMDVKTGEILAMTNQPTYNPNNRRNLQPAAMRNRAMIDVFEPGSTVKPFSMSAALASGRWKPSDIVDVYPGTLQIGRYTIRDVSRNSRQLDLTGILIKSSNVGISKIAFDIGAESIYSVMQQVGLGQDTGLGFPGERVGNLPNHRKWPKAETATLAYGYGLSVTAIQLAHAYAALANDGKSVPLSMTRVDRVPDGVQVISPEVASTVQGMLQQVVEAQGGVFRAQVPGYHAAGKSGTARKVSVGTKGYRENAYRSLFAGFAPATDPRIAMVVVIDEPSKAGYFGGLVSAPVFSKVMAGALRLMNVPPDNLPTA
Protocol: The assays were carried out in the presence of 5% DMSO and 0.01% Triton X100 to avoid the formation of colloidal structures and adsorption of protein and/or compounds to surfaces. The Z’-factor determined for the assay was 0.73 ± 0.28, indicating the suitability and robustness of the assay for high throughput screening (HTS) (Figure 1B,C).
The activity of soluble ^PaPBP3 (300 nM) was measured in the presence of 0.8 mM S2d, 1 mM D-alanine and 0.5 mM mBBr for 25 min by monitoring the increase in the fluorescence intensity of mBBr at Ex/Em: 394/490 nm using an Infinite M1000 microplate reader (Tecan, Männedorf, Switzerland). To test the effect of inhibitors, 100 µM or 0.8 to 100 µM of compounds diluted in 96% DMSO were incubated for 30 min and 450 rpm with 300 nM soluble PBP3. The incubation period was set to improve the binding of non-covalent inhibitors and 0.01% Triton X100 (Sigma-Aldrich, Taufkirchen, Germany) was added to prevent aggregation of compounds. The enzyme reaction was started by adding a substrate mix of 0.8 mM S2d and […]. The enzyme, compound and substrate mix were mixed 1:1, pipetted with a Liquidator 96 (Melter Toledo, Gießen, Germany) and the fluorescence intensity was directly monitored with an Infinite M1000 microplate reader (Tecan) at Ex/Em: 394/490 nm. The assay was performed in black, flat-bottom 96-well microplates (Greiner Bio-One, Kremsmünster, Austria) at 37 °C in Sorensen Phosphate Buffer (57 mM Na2HPO4 and 10 mM KH2PO4, pH 7.5 + 0.01% Triton X-100). The velocity of the PBP3 reaction was calculated in the presence of each concentration of compound and the velocity values were used to estimate IC50 by sigmoidal nonlinear regression, using Prism v.9 software (San Diego, CA, USA) and the velocity of the reaction at each concentration.

[2] = molecular target: T1, PBP3 of P. aeruginosa (PaPBP3); experiment: FP-Bocillin FL competition assay; type: binding; conditions: 30 min preincubation before Bocillin FL, 37 °C; for IC50: read-out: IC50 Determination with PaPBP3, FP-Bocillin FL Assay
Protocol: Bocillin FL is a fluorescent penicillin V derivate used as a competitor for PBP inhibitors.
Fluorescence polarisation (FP) experiments were carried out as described before. To determine the binding of Bocillin FL to PBP, 200 nM of ^PaPBP3 was incubated for 30 min with 100 nM of Bocillin FL (Thermo Fisher Scientific, Waltham, MA, USA). The fluorescence polarisation signal of free Bocillin FL was monitored in a Pherastar microplate reader (BMG Labtech, Ortenberg, Germany) in the polarisation mode with Ex/Em: 485/520 nm excitation and emission filters. Millipolarisation (mP) units were calculated using the MARS data analysis software v30.40.R2 (BMG Labtech, Ortenberg, Germany). All the experiments were done in Sorensen buffer at 37 °C using flat-bottom, black 96-well plates. […] Bocillin FL was diluted in Sorensen buffer and added to the reaction and directly measured for 30 min at 37 °C. The FP was continuously measured in the presence and absence of compound and enzyme. […] The estimated IC50 values were established by sigmoidal nonlinear regression, using Prims v.8 software.

[3] = test system: T-lymphoblast CCRF-CEM cell line; experiment: Cytotoxicity assay (PrestoBlue), CCRF-CEM; conditions: CC50, 72 h
Protocol: (§1) We finally tested the cytotoxicity of the compounds against four eukaryotic cell lines (Table 2 and Table S5), NRK-52E, an epithelial kidney cell line of Rattus norvegicus; Hep G2, an human epithelial liver cell line; and two suspension cell lines: CCRF-CEM, a T lymphoblast; and H9, a cutaneous T lymphocyte cell line.
(§2) Cell lines stored at −120 °C were thawed to 37 °C and resuspended in 10 mL of medium pre-warmed to 37 °C. Cells were pelleted at 300× g for 10 min, and then resuspended in fresh medium, seeded in a T-75 culture flask, and placed in a CO2 incubator (37 °C with 5% CO2 tension). Once the cells reached approximately 70–80% confluency, they were then passaged regularly. The adherent cell lines NRK52E, HepG2 and Huh 7 were washed once with 10 mL DPBS and detached with Trypsin-EDTA for 5 to 7 min and resuspended in 15 mL of the appropriate medium. The suspension cell line CCRF-CEM were diluted and resuspended in fresh RPMI 1640 PAN medium. To calculate the cell density, the cell resuspensions were diluted 1:6 with DPBS. Equal volumes of cell suspension and Trypan Blue were mixed and gently loaded into a haemocytometer (INCYTO, 31056 Republic of Korea). In each experiment, cell concentrations were adjusted to reach a concentration of 2.5 × 10^3 cell/well for NRK52E, 5 × 10^3 cell/well for HepG2, 6.2 × 10^4 cell/well for CCRF-CEM and 3 × 10^3 for H9. The cells were incubated with decreasing concentration of compounds (1 µL in 96% DMSO) for 72 h at 37 °C with 5% CO2 tension. Cycloheximide, a cytotoxic compound that interferes with the translocation step in eukaryotic protein synthesis was used as a control for the experiments. The assay was carried out in flat-bottom, transparent 96-well plates. Cell viability was determined using the PrestoBlue reagent (Thermo Fisher Scientific, Waltham, MA, USA) according to the manufacture’s protocol. First, 10× PrestoBlue was added to each well to obtain a 1× solution, and incubated at 37 °C for 45 min. Then, fluorescence was measured at Ex/Em: 550/595 nm using a ClarioStar microplate reader (BMG Labtech). Cytotoxicity was determined as the percentage of the difference in absorbance of the untreated sample to the treated sample. CC50 was calculated using the values obtained in each concentration using the sigmoidal dose-response by Prism v.8. The media used in each cell line is detailed in Table S6.

[4] = test system: Hep G2, epithelial liver cell line; experiment: Cytotoxicity assay (PrestoBlue), HepG2; conditions: CC50, 72 h
Protocol: as §1, §2

[5] = test system: NRK-52E, epithelial kidney cell line; experiment: Cytotoxicity assay (PrestoBlue), NRK52E; conditions: CC50, 72 h
Protocol: as §1, §2

[6] = test system: H9, cutaneous T lymphocyte cell line; experiment: Cytotoxicity assay (PrestoBlue), H9; conditions: CC50, 72 h
Protocol: as §1, §2

E. coli Neumann = experiment: MIC broth microdilution, E. coli; type: cell-based; conditions: Escherichia coli; Table S3; read-out: MIC (µM) E. coli Neumann
Protocol: (§3) MIC determination was performed via standard broth microdilution according to the Clinical & Laboratory Standards institute guidelines. Overnight colonies grown on BD-Columbia agar with 5% Sheep Blood (Becton Dickinson, Franklin Lakes, NJ, USA), were diluted in Mueller Hinton Broth 2 cation adjusted (MH+) medium (Thermo Fisher Scientific) to a concentration of 5 × 10^5 CFU/mL. Serial dilutions (1:2) of test compounds were incubated at 37 °C with 5 × 10^4 bacteria in a final volume of 100 μL. Sterile and growth controls in the presence of 1% DMSO and PMBN if the case, and the positive controls, aztreonam (AZT) and tigecycline (TIG) were included in the experiments (Table S4). The MICs were determined visually after 18 h at 37 °C and confirmed by the addition of 10% PrestoBlue (ThermoFisher Scientific) reagent according to the manufacture’s protocol. The fluorescence signal of PrestoBlue reagent was measured at Ex/Em: 550/595 nm after 30 min incubation at 37 °C using at a ClarioStar microplate reader (BMG Labtech). PrestoBlue reduction occurs in the presence of living cells and consequently turns red in colour and is highly fluorescent.

[7] = test system: K. pneumoniae clinical isolate; experiment: MIC broth microdilution, K. pneumoniae; type: cell-based; conditions: Klebsiella pneumoniae; Table S3
Protocol: as §3

A. baumannii ATCC15308 = experiment: MIC broth microdilution, A. baumannii; type: cell-based; conditions: 10 µg/mL PMBN
Protocol: as §3

S. pneumoniae = experiment: MIC broth microdilution, S. pneumoniae; type: cell-based; conditions: Streptococcus pneumoniae; Table S3; read-out: MIC (µM) S. pneumoniae
Protocol: as §3

B. subtilis 168 = experiment: MIC broth microdilution, B. subtilis; type: cell-based; conditions: Bacillus subtilis, 168; Table S3
Protocol: as §3

S. aureus 133 = experiment: MIC broth microdilution, S. aureus; type: cell-based; conditions: Staphylococcus aureus, 133; Table S3
Protocol: as §3

Row | Structure (SMILES) | IC50 [1] | inhibition at 100 µM [1] | IC50 [2] | other results
1 | CSc1ccc(C2c3c(oc4cc(C)cc(C)c4c3=O)C(=O)N2CC2CCCO2)cc1 (stereo not shown) [Compound 9] | 99 ± 1 µM | 60% | 18 ± 3 µM | 
2 | CCCCCCOc1cccc(N2C(=O)C(O)=C(C(=O)c3ccccc3)C2c2ccccc2F)c1 (stereo not shown) [Compound 3] | 19 ± 1 µM | 100 ± 0.8% | > 100 µM | IC50 Determination with PaPBP3, FP-Bocillin FL Assay [2]: failed to inhibit Bocillin FL binding
3 | C[C@@H]1C[C@@H]([C@H](O)CC2CC(=O)NC(=O)C2)C(=O)[C@@H](C)C1 [Cycloheximide, reference compound] |  |  |  | Cytotoxicity CCRF-CEM [3]: 0.66 ± 0.5 µM; Cytotoxicity effect (µM) Epithelial liver HepG2 [4]: 1.34 ± 0.7 µM; Cytotoxicity effect (µM) Epithelial kidney NRK52E [5]: 0.20 ± 0.2 µM; Cytotoxicity effect (µM) T-lymphocyte H9 [6]: 0.53 ± 0.3 µM
4 | COc1ccc(C2=C(O)C(=O)N(c3nc(SCc4ccccc4)n[nH]3)C2c2ccccc2F)cc1 (stereo not shown) [Compound 7] | 65 ± 19 µM | 62% | 58 ± 21 µM | 
5 | COc1ccc(CN2C(=O)/C(=C(/C)O)C(=O)[C@@H]2COC(C)(C)C)c(OC)c1 [Compound 8] | 66 ± 16 µM |  | 93 ± 18 µM | 
6 | CCOC(=O)c1ccc(N2C(=O)C(O)=C(S(=O)(=O)c3ccccc3)C2c2ccc(C(C)C)cc2)cc1 (stereo not shown) [Compound 4] | 24 ± 20 µM | 101% | > 100 µM | IC50 Determination with PaPBP3, FP-Bocillin FL Assay [2]: failed to inhibit Bocillin FL binding
7 | COc1ccc(C(=O)C2=C(O)C(=O)N(CCc3c(C)[nH]c4ccccc34)C2c2ccc(Cl)cc2)cc1 (stereo not shown) [Compound 6] | 63 ± 4 µM | 92 ± 7% | 9 ± 6 µM | 
8 | COc1ccc(N2C(=O)C(O)=C(C(=O)c3ccc4c(c3)OCO4)C2c2ccc(Br)cc2)cc1 (stereo not shown) [Compound 5] | 61 ± 1 µM |  | 69 ± 13 µM | 
9 | CCCCCCOc1cccc(N2C(=O)C(O)=C(C(=O)c3ccccc3)C2c2ccc(C(C)C)cc2)c1 (stereo not shown) [Compound 2] | 4 ± 6 µM | 101 ± 0.4% | 17 ± 9 µM | 
10 | O=C(C1=C(O)C(=O)N(Cc2c[nH]c3ccccc23)C1c1ccc(Cl)cc1)c1ccc(Br)cc1 (stereo not shown) [Compound 39] | 24 ± 7 µM |  | 11 ± 4 µM | MIC (E. coli Neumann): > 100 µM; MIC [7]: > 100 µM; MIC (µM) A. baumanii ATCC15308 (A. baumannii ATCC15308): > 100 µM; MIC (S. pneumoniae): 25 µM (≈ 13 µg/mL); MIC (B. subtilis 168): > 100 µM; MIC (S. aureus 133): 25 µM (≈ 13 µg/mL); Cytotoxicity CCRF-CEM [3]: >100 µM; Cytotoxicity effect (µM) Epithelial liver HepG2 [4]: > 100 µM; Cytotoxicity effect (µM) Epithelial kidney NRK52E [5]: > 100 µM; Cytotoxicity effect (µM) T-lymphocyte H9 [6]: > 100 µM
